Data: US20230068020A1, “MACROLIDE COMPOUND AND ITS USE OF TREATMENT CHRONIC RESPIRATORY DISEASE” (priority 2020, published 2023)
≈ marks a conversion by molar mass, not a printed value.

Assays:
[1] = male, Sprague-Dawley, rat, in vivo, po, 100 mg/kg
Protocol: (§1) In another study, a single intravenous dose of two compounds was given to rats (N=3) at 30 mg/ml dosage following administration through the lateral tail vein in order to obtain the absolute oral bioavailability and clearance parameters. Compounds (10 mg/mL) was dissolved in 30% DMSO for IV injection and suspended in 0.5% CMC-Na for IG respectively.

in vivo = conditions: Sprague-Dawley, rat
Protocol: as §1

[2] = system: IL-8 expression in BEAS-2B cell; assay: LPS induced IL-8 release by BEAS-2B (ELISA); format: cell-based; conditions: in words; BEAS-2B
Protocol: The inhibitory effect of compounds of Examples on the IL-8 expression in BEAS-2B cell was tested using the following method. BEAS-2B was purchased from ATCC (American Type Culture Collection, Manassas, Va.). Cells were maintained in growth medium (LHC-9) and cultured at 37° C. under 5% CO2. Compounds were dissolved in 0.1% DMSO. Erythromycin was used as a positive control.
For the assessment of the effect of compounds of Examples on IL-8 expression inhibition in BEAS-2B cell line, cells were plated in 24 well plate at a density of 100,000/mL, in a final volume of 1 mL of assay medium. Cells were incubated at 37° C., 5% CO2 for 1 day. After the incubation, compounds were added at day 2 and LPS was added at day 3. A compound source plate was prepared by triplicate five-point 10-fold or 2-fold serial dilutions in DMSO, beginning at 1 mM (final top concentration of compounds of Examples in the assay was 100 μM and the DMSO was 0.1%). The positive control consisted of cells treated with 100 μM erythromycin and negative control was consisted of 0.1% DMSO treated cells. LPS stock solution at 5 mg/mL was made by dissolving 10 mg of LPS powder into 2 mL of ddH2O and aliquoted to 100 μL per vial. Final concentration of LPS in the assay was […] by making 125-fold dilution of stock solution with medium.
Specific immunoreactivity for IL-8 in culture supernatants were measured by a commercially available ELISA kits (R&D Systems, Inc., Minneapolis, Minn.). Each sample was assayed in duplicates as recommended by the manufacture. The concentration of compounds of Examples inhibiting IL-8 production on BEAS-2B by 10% was estimated from a 4-parametric of the normalized dose response curve. (IC10)

[3] = system: Haemophilus influenzae ATCC 49247; assay: Antibacterial activity, agar dilution MIC; format: cell-based; conditions: ATCC49247, 20-24 hrs incubation, read-out: minimum inhibitory concentration MIC
Protocol: The antibacterial activity of Erythromycin and compounds of examples were evaluated by the agar dilution method, following the guidelines of the CLSI. […] Briefly, bacteria were grown overnight in adapted media (MHIIA with 5% of sheep blood for Streptococcus pneumoniae and Haemophilus influenzae, and MHIIA for the other bacteria strains) at 35° C., 5% CO2.
Cultures were centrifuged at 3000×g for 15 min. Pellets were diluted with 5 mls cold PBS and the OD600nm was adjusted to 10^8 CFU.mL^−1 with a spectrometer. Bacteria were then added to 96-well test plates. Compounds were diluted in DMSO in a 2 fold steps from 20 mg/ml in DMSO in 96 well plated and transferred to the test plate. During the incubation, the plate was maintained at 35° C., 5% CO2.
The MICs for Erythromycin and compounds of examples were determined after 20-24 hrs incubation.

THP-1 cell = assay: Differentiation of monocyte to macrophage in THP-1 cell line; format: cell-based; conditions: in words
Protocol: The THP-1 cell line was purchased from ATCC (American Type Culture Collection, Manassas, Va.). Cells were maintained in growth medium (RPMI-1640) with supplemented with 10% heat inactivated bovine serum, 100× Glutamax medium and 0.05 mM β-Mercaptoethanol at 37° C. under 5% CO2. Compounds were dissolved in 0.1% DMSO. Erythromycin was used as a positive control.
For the assessment of the effect of compounds of the present invention on differentiation of monocyte to macrophage in THP-1 cell line, cells were collected and centrifuged at 900 rpm for 4 minutes. The cell density was adjusted to 2.5×10^5/mL. cell suspension of 400 μL was added to each well of 48-well plate following the plate layout. PMA 1 mg, a compound can induce monocyte differentiation, was dissolved in 10 mL DMSO to form 100 μg/mL solution and aliquote it into 1 mL per vial. 1 mL solution can be further aliquoted into 10 μL per vial and stored the aliquots at −20° C. Make 10-fold dilution of PMA with DMSO and then 500-fold dilution with complete medium. 50 μL solution were then added to each well of 48-well plate following the plate layout. Erythromycin and compounds of examples at stock concentration of 10 mM was serially diluted at 10-fold in DMSO. 50 μL solution was added to each well of 48-well plate following the plate layout. After 96 hrs incubation at 37° C., 5% CO2, the plate was washed with DPBS for three times to remove non-adherent cells for three times. Complete medium 180 μL and alarmar blue 20 μL was added to each well. The fluorescent intensity was read at excitation 530 nm and emission 590 nm using PerkinElmer Victor3 after 3 hours plate incubation.
The differentiation activity of compounds of Examples is compared to that of 100 μM erythromycin and the results are shown in FIG. 1 and Table 3.

[4] = system: smoke induced COPD mice model; assay: Smoke induced COPD mice model; format: in vivo, C57BL/6 J mice
Protocol: The commercial non-filtered cigarettes containing 11 mg tar and 0.9 mg nicotine per cigarette were used in this study. Eight-week-old male C57BL/6 J mice (purchased from Shanghai Xipuer Yibikai animal Co) were divided into four groups as follows: Group 1 was the control group(NS6m), Group 2 was the animal model CS group(CS6m), Groups 3 was CS+Compound A 100 mpk group(LY100), Group 4 was CS+erythromycin group(EM100). Mice were placed in a Plexiglass chamber covered by a disposable filter. The animals received CS of 5 cigarettes/time, carried out twice per day and 5 days a week for 24 weeks. Mainstream CS was generated by an exposure system in which combustion of the cigarette was drawn into the mouse chambers via a peristaltic pump. In group 3 and 4, mice were orally administrated with Compound A (100 mg/kg) twice per day from the 12th week to 24th week. One week after the last CS exposure, animals were sacrificed by intraperitoneal injection of 10% chloral hydrate for the plasma, bronchoalveolar lavage fluid (BALF) and lung tissues collection.
The lung tissues were collected and inflated with 4% paraformaldehyde at a pressure of 25 cmH2O, fixed for 24 h in formalin, embedded with paraffin, sectioned in the sagittal plane, and stained with hematoxylin and eosin (H & E). Alveolus enlargement was quantified by measurement of the mean chord length of alveoli with Analysis software Image J (see FIGS. 5 & 6).
For the bronchoalveolar lavage fluid collection, lungs were lavaged with 1 ml of saline, and the resulting BALF was centrifuged at 3000 g for 15 minutes. Cells were washed three times and then analyzed on a ThermoFisher Countess II cytometer.

F [1]: 21.8%
clearance (in vivo; iv): 50.2 mL/min/kg
AUC(0-inf) (in vivo; male, po, 100 mg/kg): 7250 ng·h/mL
AUC(0-t) (in vivo; male, po, 100 mg/kg): 7240 ng·h/mL
Cmax (in vivo; male, po, 100 mg/kg): 2530 ng/mL
Tmax (in vivo; male, po, 100 mg/kg): 2 h
half-life (in vivo; male, po, 100 mg/kg): 0.93 h
MIC [3]: 16 µg/mL (≈ 21.8 µM)
SMILES: CC[C@H]1OC(=O)[C@H](C)[C@@H](O[C@H]2C[C@@](C)(OC)[C@@H](O)[C@H](C)O2)[C@H](C)[C@@H](O[C@@H]2O[C@H](C)C[C@H](N(C)C)[C@H]2O)[C@](C)(O)C[C@@H](C)C(=O)[C@H](C)[C@@H](O)[C@]1(C)O [Erythromycin, reference compound]
LPS-induced IL-8 release [2]: significantly inhibited
effect on THP-1 cell differentiation (THP-1 cell): promotional effect on THP-1 cell differentiation in a dose dependent manner
inflammatory cell infiltration and enlargement of alveolus (lung histology) ([4]; 100 mg/kg orally twice per day, 12th to 24th week, vs CS group): significantly attenuated
total cell count and number of macrophages and neutrophils in BALF ([4]; 100 mg/kg orally twice per day, compared to the smoking group): significantly lower
airway resistance and total lung capacity ([4]; oral administration of 100 mg/kg, 24 weeks smoke exposure): reduced two parameters and partially recovered lung function
